# Experimental data reported in article PMC6213047, “Design of Antibacterial Agents: Alkyl Dihydroxybenzoates against Xanthomonas citri subsp. citri” (International Journal of Molecular Sciences, 2018).
# Entries after “also recorded” stand apart in the source; their conditions may differ. Like-named read-outs stand apart in the source and are kept apart here.
# Legend:
# [1] = Partition coefficient log Po/w by HPLC (OECD 117); format: physicochemical; details: HPLC method, OECD 117, methanol:water 3:1
# Protocol: The analyses were performed with the use of an isocratic flow in methanol: water (3:1) at 1.0 mL min^−1. We injected 20.0 μL and analyses were performed at 254 nm. We used as reference compounds thiourea, phenol, acetophenone, benzoic acid, benzene, toluene, biphenyl, fluoranthene and triphenylamine in order to construct the curve log K × log Po/w. The lipophilicity of alkyl dihydroxybenzoates was determined from their retention times and interpolation in linearity curve log K × log Po/w. We performed the analyses in duplicate.
# [2] = system: HaCaT (human keratinocyte cell line); experiment: Cytotoxicity MTT assay, HaCaT; format: cell-based
# Protocol: (§1) This test is based on the reduction of 3-(4,5-dimethyl-2-thiazolyl)-2,5-diphenyl-2-tetrazole bromide by viable cells, with formation of violet insoluble formazan crystals. Five cell lines were used in order to evaluate the cytotoxic effect of the compounds as a whole.
# (§2) The cytotoxicity of compounds 4, 16, 28 and copper oxychloride was determined by MTT assay. The cell lines used were HaCaT (human keratinocyte cell line—CLS 300493), Huh-7.5 (human hepatoma cell line—ATCC® PTA-8561), MRC-5 (human lung fibroblast cell line—ATCC CCL-171), VERO (monkey kidney epithelial cell line—ATCC® CCL81) and ACHN (human renal adenocarcinoma cell line—ATCC® CRL1611). The cells were cultured in appropriate medium recommended by the American Type Culture Collection.
# (§3) The assay was performed with the concentration of 10^4 cells for both cell lines, distributed in 96-well plates and incubated at 37 °C in a 5% CO2 controlled atmosphere oven for 24 h. After the incubation period, the cells were treated with the compounds with a range of 1.56–200 μmol L^−1 and incubated for 24 h. The supernatant was removed, then 100 μL of 3-(4,5-dimethyl-2-thiazolyl)-2,5-diphenyl-2H-tetrazolium (MTT) salt at 1 mg mL^−1 diluted in DMEM medium (Gibco Life Technologies, Gaithersburg, MD, USA) was added and incubated for 30 min. Subsequently, the MTT was removed, then 100 μL of DMSO under agitation for 5 min at 60 rpm was added. The plates were read at 570 nm in a FLUOstar Omega/BMG LABTECH plate reader, Offenburg, BW, DE. We carried out the experiments in triplicate and three independent events for statistical analysis (GraphPad Software, San Diego, CA, USA). The MTT assay is based on the tetrazolium salt (yellow-colored) reduction to formazan (purple-colored) by metabolically active cells.
# [3] = system: Huh-7.5 (human hepatoma cell line); experiment: Cytotoxicity MTT assay, Huh-7.5; format: cell-based
# Protocol: as §1, §2, §3
# [4] = system: MRC-5 (human lung fibroblast cell line); experiment: Cytotoxicity MTT assay, MRC-5; format: cell-based
# Protocol: as §1, §2, §3
# [5] = system: VERO (monkey kidney epithelial cell line); experiment: Cytotoxicity MTT assay, VERO; format: cell-based
# Protocol: as §1, §2, §3
# [6] = system: Xcc cells membrane integrity; experiment: Cellular membrane permeability of Xcc, Live/Dead BacLight kit; format: cell-based, Xanthomonas citri subsp. citri; details: compounds at ¼ MIC, 15 min; nisin as positive control
# Protocol: Membrane integrity was measured by using the commercial assay Live/Dead BacLight® bacterial viability kit (Invitrogen, Carlsbad, CA, USA). We observed cells with intact membrane in fluorescent blue (SYTO 9) and cells with disturbance or affected membrane integrity in red or pink (propidium iodide). The data analyses were plotted as the percentage of cells permeated by propidium iodide (Figure 2).
# Phase contrast microscopy was used to observe changes in cell shape and signs of cell division alteration using an objective lens with a magnification of 100×. To evaluate the Xcc cells’ membrane integrity, the BacLight® kit was used. Mixtures of SYTO 9 dyes and propidium iodide (PI). SYTO 9 (blue) can stain nucleic acids in general—with intact or damaged membranes. On the other hand, PI (red) penetrates only the bacteria with damaged membranes, causing overlap in the fluorescence of SYTO 9. Therefore, using a mixture of the dyes, the bacteria with disturbed cell membranes are stained in fluorescent red and the intact cell membranes are stained in fluorescent blue. […] Cellular immobilization was performed on slides containing 1% agarose gel in 0.85% saline buffer. The slides were prepared with 1.0 mL of the agarose solution, which was dispersed in optical microscopy slides and on each slide another slide was placed so that the gel continued like a thin film and was of homogeneous height. The slides were dried at room temperature for approximately 20 min and opened at the time of use, when 10 μL of the cell suspension was deposited in the center and covered with the cover slip. The cells were visualized using the Olympus BX-61 optical microscope equipped with OrcaFlash 2.8 monochrome camera (Hamamatsu, Shizuoka, Japan). Cell Sensation software v11 (Olympus) was used to document and analyze the images.
# FtsZ from Xcc = experiment: Inhibition of GTPase activity, continuous substrate regeneration assay; format: biochemical, Xanthomonas citri subsp. citri; details: compounds at MIC values, Xcc-FtsZ 5 μM, 400 μM GTP
# Protocol: The cell division process is mediated by the formation of the Z ring, coordinated by GTP hydrolysis activity of FtsZ [33, 34, 35].
# The evaluation of the inhibition of GTPase activity was measured by the characterization of the FtsZ from Xcc. This methodology is known as continuous assay of substrate regeneration and consists of the hydrolysis of guanosine triphosphate (GTP) in guanosine diphosphate (GDP) and inorganic phosphate. The GTP is regenerated by the enzyme pyruvate kinase which, in turn, converts the phosphoenol pyruvate (PEP) to pyruvate. The pyruvate produced by this reaction is reduced to lactate by lactate dehydrogenase, using NADH [64].
# Reagent stocks were dispersed in Tris 50 buffer (1:1 tris:KCl at pH 7.9). We also prepared two mixtures: Mixture 1—magnesium chloride (MgCl2), pyruvate kinase/lactate dehydrogenase, phosphoenol-pyruvate, NADH and GTP, adding or not the test compounds to MIC values; and mixture 2—Xcc-FtsZ. The assay was performed in a 96-well plate, 75 μL of mixture 1 was pipetted into a well and incubated for 5 min at 30 °C; then 75 μL of mixture 2 was added and the readings started. A Biotek Synergy MX plate reader was used. The readings were performed every 5 s, at the wavelength of 340 nm at 30 °C, under constant stirring.
# The total volume of 150 μL presented the following concentrations: 5 mM MgCl2; pyruvate kinase/lactate dehydrogenase 20 U mL^−1; 2 mM phosphoenol-pyruvate; 1 mM NADH; 400 μM GTP; Xcc-FtsZ 5 μM.
# [7] = Homo sapiens, HaCaT, 24 h, read-out: IC50 HaCaT, MTT, 24 h treatment
# [8] = MTT, 24 h treatment, read-out: IC50 HaCaT
# [9] = Homo sapiens, Huh7.5, 24 h, read-out: IC50 Huh-7,5, MTT, 24 h treatment
# [10] = MTT, 24 h treatment, read-out: IC50 Huh-7,5
# [11] = Homo sapiens, MRC5, 24 h, read-out: IC50 MRC-5, MTT, 24 h treatment
# [12] = MTT, 24 h treatment, read-out: IC50 MRC-5
# [13] = Primates, Vero, 24 h, MTT, 24 h treatment, read-out: IC50 VERO
Structure (SMILES),chromatographic logP [1],"IC50 [2, 7]","IC50 [2, 8]","IC50 [3, 9]","IC50 [3, 10]","IC50 [4, 11]","IC50 [4, 12]","IC50 ([5]; MTT, 24 h treatment, read-out: IC50 VERO)","IC50 ([5]; Primates, Vero, 24 h, read-out: IC50 VERO, MTT, 24 h treatment)",percentage of cells permeated by propidium iodide [6],effect on GTPase activity of FtsZ (FtsZ from Xcc),"IC50 ([3]; Homo sapiens, Huh7.5, 24 h, MTT, 24 h treatment, read-out: IC50 Huh-7,5)","IC50 [5, 13]"
CCCCCCCOC(=O)c1ccc(O)cc1O [Compound 4],5.1,~70 µM,64.9 ± 8.91 µM,~70 µM,70.6 ± 5.52 µM,> 100 µM,127 ± 4.59 µM,111 ± 8.34 µM,> 100 µM,13.9%,inhibition of FtsZ GTPase activity; also recorded: decay in the GTPase activity of FtsZ,,
CCCCCCCOC(=O)c1cc(O)ccc1O [Compound 16],5,~70 µM,69.8 ± 4.87 µM,,,> 100 µM,145 ± 6.29 µM,,,41.3%,inhibition of FtsZ GTPase activity; also recorded: decay in the GTPase activity of FtsZ,20.6 ± 0.23 µM,93.5 ± 1.93 µM
CCCCCCCOC(=O)c1ccc(O)c(O)c1 [Compound 28],4.3,~70 µM,74 ± 11.7 µM,~70 µM,64.8 ± 14.9 µM,> 100 µM,129 ± 2.12 µM,,,93.8%,inhibition of FtsZ GTPase activity; also recorded: decay in the GTPase activity of FtsZ,,92.3 ± 9.34 µM
